Key:
MC38 = assay: scratch test of MC38; format: cell-based; details: concentrations such as 5 μM, 10 μM or 20 μM; FIGS. 3-7
Experimental: Different concentrations of PDE4 inhibitors, such as 5 μM, 10 μM, or 20 μM, were administered to verify the inhibitory effect on metastasis in the scratch test of MC38.

Breast cancer cells = assay: subcutaneous tumor model, breast cancer cells; format: in vivo, C57 mice; details: e.g. 4 mg/kg + 2 mg/kg i.p. every 3 days, 6 doses
Experimental: (§1) (1) Tumorigenesis in mice. 6-8 week-old C57 female mice were selected. Breast cancer cells were cultured in vitro to logarithmic phase, collected, and resuspended in a PBS buffer solution. The collected cells were subcutaneously injected into the leg of mice with 5×10^5 cells per mouse to establish a subcutaneous tumor model. (2) After tumorigenesis, the mice were divided into four experimental groups including a blank control, a PDE4 inhibitor group, an immune checkpoint inhibitor group, and a PDE4 inhibitor+immune checkpoint inhibitor group. […] The mice were detected for weight and tumor size and recorded: tumor volume (mm^3)=length (L)×width (W)^2/2, and then subject to Luciferin fluorescence imaging of tumor. […] 10 min after injection, the mice were subject to Luciferin fluorescence imaging using a Small Animal Live Imaging System (model: IVIS Lumina XRMS Series III). […] The mice were detected for weight and tumor size and recorded: tumor volume (mm^3)=length (L)×width (W)^2/2, and then subject to Luciferin fluorescence imaging of tumor. […] 10 min after injection, the mice were subject to Luciferin fluorescence imaging using a Small Animal Live Imaging System (model: IVIS Lumina XRMS Series III).

Hematologic tumor cells = assay: subcutaneous tumor model, hematologic tumor cells; format: in vivo, C57 mice; details: in combination with anti-PD-L1 antibody; e.g. 4 mg/kg + 2 mg/kg i.p. every 3 days, 6 doses
Experimental: (§2) (1) Tumorigenesis in mice. 6-8 week-old C57 female mice were selected. Hematologic tumor cells were cultured in vitro to logarithmic phase, collected, and resuspended in a PBS buffer solution. The collected cells were subcutaneously injected into the leg of mice with 5×10^5 cells per mouse to establish a subcutaneous tumor model. (2) After tumorigenesis, the mice were divided into four experimental groups including a blank control, a PDE4 inhibitor group, an immune checkpoint inhibitor group, and a PDE4 inhibitor+immune checkpoint inhibitor group. The mice in the PDE4 inhibitor+immune checkpoint inhibitor group were sequentially intraperitoneally injected with e.g. 4 mg/kg of PDE4 inhibitor and e.g. 2 mg/kg of immune checkpoint inhibitor (e.g., an PD-L1 antibody) every 3 days, with 6 doses in total, while the PDE4 inhibitor group and the immune checkpoint inhibitor group were separately injected with the same dose of PDE4 inhibitor and immune checkpoint inhibitor in the same manner, and the blank control was injected with the same dose of normal saline. […] The mice were detected for weight and tumor size and recorded: tumor volume (mm^3)=length (L)×width (W)^2/2, and then subject to Luciferin fluorescence imaging of tumor. […] 10 min after injection, the mice were subject to Luciferin fluorescence imaging using a Small Animal Live Imaging System (model: IVIS Lumina XRMS Series III).

MC38 cells [1] = assay: tumor metastasis model, MC38 cells injected into the spleen of mice; format: in vivo, C57 mice; details: 4 mg/kg intraperitoneally every 3 days, 6 doses; FIGS. 1A and 1B
Experimental: In use, DMSO was used as the solvent for Oxaliplatin and Roflumilast. (1) Tumorigenesis in mice. 6-8 week-old C57 female mice were selected. MC38 cells were cultured in vitro to logarithmic phase, collected, and resuspended in a PBS buffer solution. The collected cells were injected into the spleen of mice through surgery with 5×10^5 MC38 cells per mouse to establish a tumor metastasis model. […] The day of the first injection was taken as Day 1. Then, the mice were detected for weight and recorded, and subject to Luciferin fluorescence imaging. That is, each mouse was intraperitoneally injected with 100 μL of 1 mg/mL aqueous solution of potassium D-Luciferin as formulated. 10 min after injection, the mice were subject to Luciferin fluorescence imaging using a Small Animal […] Imaging System (model: IVIS Lumina XRMS Series III).

MC38 cells [2] = assay: subcutaneous tumor model, colon cancer cells such as MC38; format: in vivo, C57 mice; details: e.g. 4 mg/kg + 2 mg/kg i.p. every 3 days, 6 doses
Experimental: (1) Tumorigenesis in mice. 6-8 week-old C57 female mice were selected. Colon cancer cells, such as MC38 cells, were cultured in vitro to logarithmic phase, collected, and resuspended in a PBS buffer solution. The collected cells were subcutaneously injected into the leg of mice with 5×10^5 cells per mice to establish a subcutaneous tumor model.
(2) After tumorigenesis, the mice were divided into four experimental groups including a blank control, a PDE4 inhibitor group, an immune checkpoint inhibitor group, and a PDE4 inhibitor+immune checkpoint inhibitor group. The mice in the PDE4 inhibitor+immune checkpoint inhibitor group were sequentially intraperitoneally injected with, e.g., 4 mg/kg of PDE4 inhibitor and, e.g., 2 mg/kg of immune checkpoint inhibitor (e.g., a PD-L1 antibody) every 3 days, with 6 doses in total, while the PDE4 inhibitor group and the immune checkpoint inhibitor group were separately injected with the same dose of PDE4 inhibitor and the immune checkpoint inhibitor in the same manner, and the blank control was injected with the same dose of normal saline. The day of the first injection was taken as day 1. The mice were detected for the weight and tumor size and recorded: the tumor volume (mm^3)=length (L)×width (W)^2/2, and then subject to Luciferin fluorescence imaging of tumor. That is, each mouse was intraperitoneally injected with 100 μL of 1 mg/mL aqueous solution of D-Luciferin potassium as formulated. 10 min after injection, the mice were subject to Luciferin fluorescence imaging using a Small Animal Liver Imaging System (model: IVIS Lumina XRMS Series III).
(1) Tumorigenesis in mice. 6-8 week-old C57 female mice were selected. […]

Melanoma cells = assay: subcutaneous tumor model, melanoma cells; format: in vivo, C57 mice; details: e.g. 4 mg/kg + 2 mg/kg i.p. every 3 days, 6 doses
Experimental: as §1, with “Melanoma” for “Breast cancer”

Lymphoma cells = assay: subcutaneous tumor model, lymphoma cells; format: in vivo, C57 mice; details: in combination with anti-PD-L1 antibody; e.g. 4 mg/kg + 2 mg/kg i.p. every 3 days, 6 doses
Experimental: as §2, with “Lymphoma” for “Hematologic tumor”

breast tumor cells 4T1 = assay: mouse model of lung metastasis of breast cancer; format: in vivo; details: 4T1 lung metastasis model; FIG. 8
[3] = in combination with anti-PD-1 antibody
[4] = in combination with anti-PD-L1 antibody

O=C(O)Cc1ccc(Cc2cc(-c3cccc(Cl)c3)nc(C(F)(F)F)c2)cc1 [BPN14770, Benzeneacetic acid, 4-[[2-(3-chlorophenyl)-6-(trifluoromethyl)-4-pyridinyl]methyl]-]
inhibitory effect on metastasis in the scratch test (MC38): inhibiting metastasis

OCCN(CCO)c1nc(N2CCCCC2)c2nc(N(CCO)CCO)nc(N3CCCCC3)c2n1 [Dipyridamole]
inhibitory effect on metastasis in the scratch test (MC38): inhibiting metastasis

COc1cccc(Nc2c(C(N)=O)cnc3c(C)cc(S(=O)(=O)c4cccc(C(=O)N(C)C)c4)cc23)c1 [GSK256066]
inhibitory effect on metastasis in the scratch test (MC38): inhibiting the results of metastasis

O=C(Nc1c(Cl)cncc1Cl)c1ccc(OC(F)F)c(OCC2CC2)c1 [Roflumilast]
inhibition of tumor growth (Breast cancer cells; [3]): Synergistically Inhibiting Growth of Breast Cancer
inhibition of tumor growth (Breast cancer cells; [4]): Synergistically Inhibiting Growth of Breast Cancer
inhibition of tumor growth (Hematologic tumor cells): Synergistically Inhibiting Growth of Hematologic Tumor
inhibition of tumor metastasis (Luciferin fluorescence imaging) (MC38 cells [1]): Capable of Inhibiting Tumor Metastasis
inhibition of tumor growth (MC38 cells [2]; in combination with anti-CTLA-4 antibody): Synergistically Inhibiting Growth of Colon Cancer
inhibition of tumor growth (MC38 cells [2]; in combination with anti-LAG-3 antibody): Synergistically Inhibiting Growth of Colon Cancer
inhibition of tumor growth (MC38 cells [2]; [3]): Synergistically Inhibiting Growth of Colon Cancer
inhibition of tumor growth (Melanoma cells; [3]): Synergistically Inhibiting Growth of Melanoma
inhibition of tumor growth (Melanoma cells; [4]): Synergistically Inhibiting Growth Of Melanoma
inhibition of tumor growth (Lymphoma cells): Synergistically Inhibiting Growth of Lymphoma
inhibitory effect on metastasis in the scratch test (MC38): inhibiting metastasis
inhibitory effect on tumor metastasis (breast tumor cells 4T1): significant inhibitory effect on tumor metastasis

COc1ccc(C2CNC(=O)C2)cc1OC1CCCC1 (stereo not shown) [Rolipram, 4-(3-cyclopentyloxy-4-methoxyphenyl)pyrrolidin-2-one]
inhibitory effect on metastasis in the scratch test (MC38): inhibiting metastasis

From patent publication US20240316015A1, “COMPOSITION AND METHOD FOR TREATING TUMORS” (NATURAL MEDICINE INSTITUTE OF ZHEJIANG YANGSHENGTANG CO., …, priority 2021, published 2024)
